Measured values: publication PMC9596378, “Discovery and molecular basis of subtype-selective cyclophilin inhibitors” (Nature Chemical Biology, 2022)
Values joined by “and” are separate entries in the source; they are usually repeats but may differ in a detail not shown here. Identical values can stand only once. Like-named read-outs stand apart in the source and are kept apart here.

Tests used:
[1] = test system: isolated mouse liver mitochondria; test: Mitochondrial calcium retention capacity assay (mPTP opening); conditions: for calcium retention capacity before mPTP opening (in words): 2 µM CsA, 10 µM B52-Cy5/*B52-Cy5, 20 µM B53-Cy5/*B53-Cy5, vs DMSO; for Normalized # Pulses (calcium retention capacity ratio to DMSO): 60 µM CaCl2 pulses, individual mitochondrial preparations
Experimental: All procedures used in animal studies were approved by the Institutional Animal Care and Use Committee at Massachusetts General Hospital. Female C57BL/6J mice (Jackson Labs) age 10–12 weeks were anesthetized by isoflurane. The liver from one mouse was rinsed in ice-cold PBS, minced in ice-cold isolation buffer containing 0.28 M sucrose, 10 mM Hepes-KOH pH 7.2, 0.2 mM EDTA and 1% (w/v) bovine serum albumin, gently homogenized with four strokes of a tight-fitting Teflon pestle at 1,000 r.p.m., and then centrifuged for 10 min at 600g at 4 °C. The supernatant was recovered and centrifuged for 10 min at 8,000g at 4 °C. The loose outer buffy coat was rinsed off and the pellet resuspended gently in isolation buffer and the spins were repeated. […] The suspension was kept on ice and all assays performed within 4–6 h following isolation. Quality control was done with every preparation by adding 250 mcg mitochondria to 500 µL assay buffer containing 137 mM KCl, 10 mM Hepes-KOH pH 7.2, 2.5 mM MgCl2, 5 mM each of glutamate and malate, and 3 mM KH2PO4. Sequential 150 µM ADP pulses were then delivered. Only preparations with respiratory control ratio >6 (as assessed by the ratio of ADP-coupled state 3 respiration to state 4 respiration) were used for further experiments. Measurements were made in a custom-built spectrometer.
Two hundred and fifty micrograms of mouse liver mitochondria isolated as above were added to 500 µL assay buffer containing 125 mM KCl, 20 mM Hepes-KOH pH 7.2, 1 mM MgCl2, 5 mM each of glutamate and malate, and 3 mM KH2PO4. 0.5 µM Calcium Green 5N (Molecular Probes) was included to monitor extramitochondrial free Ca^2+. Fluorescence was continuously monitored in the custom-built fluorimeter described above, with excitation 470 nm and emission 520–560 nm. […] The calcium retention capacity ratio was obtained by normalizing the number of Ca^2+ pulses that could be taken up in a given condition by that taken up under DMSO control conditions, as previously described.

[2] = test system: HeLa cells; test: Fluorescence microscopy of Cy5-conjugated compounds; type: cell-based, human
Experimental: Cells were seeded into 96-well, black, clear-bottom, TC-treated plates, in DMEM supplemented with 10% FBS 24 h prior at a density where wells were ~80% confluent at the time of the experiment. Medium was removed and cells were then stained with 50 µL mixture containing Cy5-labeled compound (6 µM) in Kreb’s ringer solution HEPES buffered pH 7.2 (KRB), for 1 h at 37 °C. Then, 50 µL Hoechst 33342 (8 µM) and Mitotracker Green FM (0.1 µM) in KRB was added directly to wells containing cells and incubated for 15 min at 37 °C. Medium was removed and cells were washed twice with 100 µL KRB. Cells were then kept adherent to the wells in 100 µL KRB for imaging. Fluorescence microscopy was conducted on an Opera Phenix Plus High-Content Screening System, using Alexa 488, Alexa 647, and Hoescht 33342 channels. Images were analyzed using Harmony v.4.9.

[3] = molecular target: T1, CypB E121S (Homo sapiens, UniProt P23284, E121S); test: biochemical
T1 construct: Lane 14- SNA-CypB E121S (34-216);; His6 tag with TEV site (2BT vector); SNA remnant stays on the N-terminus (N, cleaved yes); made in house; host or cells: E. coli BL21(DE3)
Outline: (§1)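 Chymotrypsin-coupled cis–trans isomerization of Suc-AAPF-AMC (5 µM) catalysed by 5 nM cyclophilin, run cold (2–3 °C) at pH 7.3 with 5 min compound preincubation.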

[4] = molecular target: T2, CypE K212A (Homo sapiens, UniProt Q9UNP9, K212A); test: Chymotrypsin coupled prolyl-isomerase assay; type: biochemical; conditions: mutant CypE K212A; read-out: Mutant Cyclophilin Prolyl Isomerase Inhibition IC50 Values, CypE K212A
T2 construct: Lane 4- GS-CypE K212A (131-301);; His6 tag with thrombin site (pET28a LIC); GS remnant stays on the N-terminus (N, cleaved yes); host or cells: E. coli BL21(DE3)
Outline: as §1

[5] = molecular target: T3, CypE K218A (Homo sapiens, UniProt Q9UNP9, K218A); test: Chymotrypsin coupled prolyl-isomerase assay; type: biochemical
T3 construct: Lane 6- GS-CypE K218A (131-301);; His6 tag with thrombin site (pET28a LIC); GS remnant stays on the N-terminus (N, cleaved yes); host or cells: E. coli BL21(DE3)
Outline: as §1

[6] = molecular target: T4, CypE (Homo sapiens, UniProt Q9UNP9); test: Competition anisotropy binding assay with A26-Fl
T4 construct: PPIE (UniProtKB Entry Q9UNP9: residues 131–301); host or cells: E. coli BL21(DE3)
Experimental: Adapted from previous work[52], cyclophilin in assay buffer (25 mM HEPES pH 8.0, 100 mM NaCl, 0.01% Triton X-100) at a pre-determined concentration from Supplementary Table 6 was incubated with 0.5 nM A26-Fl for 10 min at room temperature in a flat-bottom black untreated 96-well plate (Corning). Competitor macrocycle was then added to each well and incubated for 24 h. Final assay volume was 100 µL with 0.25% DMSO. Fluorescence anisotropy was then measured using a Tecan Spark plate reader using 492 nm/523 nm excitation/emission settings.

[7] = mutant CypB E121S, read-out: Mutant Cyclophilin Prolyl Isomerase Inhibition IC50 Values, CypB E121S
[8] = prolyl-isomerase inhibition, read-out: IC50 CypB E121S

T1 sequence (P23284 34-216 E121S): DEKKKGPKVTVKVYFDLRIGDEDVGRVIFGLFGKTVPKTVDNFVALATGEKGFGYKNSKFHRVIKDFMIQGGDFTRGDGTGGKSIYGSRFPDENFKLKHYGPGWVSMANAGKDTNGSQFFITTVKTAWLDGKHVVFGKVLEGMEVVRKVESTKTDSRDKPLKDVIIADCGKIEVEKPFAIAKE
T4 sequence (Q9UNP9 131-301): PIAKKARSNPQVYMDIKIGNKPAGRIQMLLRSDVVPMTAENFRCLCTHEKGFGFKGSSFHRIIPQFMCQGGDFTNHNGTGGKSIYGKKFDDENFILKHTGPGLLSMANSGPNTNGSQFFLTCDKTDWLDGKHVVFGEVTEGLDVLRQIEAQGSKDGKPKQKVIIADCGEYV
T3 sequence (Q9UNP9 131-301 K218A): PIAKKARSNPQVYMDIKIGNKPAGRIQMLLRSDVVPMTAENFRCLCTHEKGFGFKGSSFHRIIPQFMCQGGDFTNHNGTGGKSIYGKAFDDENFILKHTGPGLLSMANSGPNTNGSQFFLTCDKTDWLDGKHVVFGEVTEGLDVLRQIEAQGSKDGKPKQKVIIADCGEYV
T2 sequence (Q9UNP9 131-301 K212A): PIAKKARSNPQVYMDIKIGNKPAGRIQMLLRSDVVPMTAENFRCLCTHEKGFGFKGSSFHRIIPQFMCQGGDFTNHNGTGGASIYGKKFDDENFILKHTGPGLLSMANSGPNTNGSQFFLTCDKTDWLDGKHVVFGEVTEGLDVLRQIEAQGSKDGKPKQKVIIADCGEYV

For `C[N+]1=C(C=CC=CC=C2N(CCCCCC(=O)NCCNC(=O)C3CCNC(=O)C=CC(=O)N4CCCC(Cc5ccccc5)(C4)C(=O)NC(Cc4ccc(-c5ccc(CC(C(=O)O)C(=O)O)cc5)cc4)C(=O)NCc4ccccc4CC(=O)N3)c3ccccc3C2(C)C)C(C)(C)c2ccccc21` (stereo not shown) [*B52-Cy5], the “calcium retention capacity before mPTP opening (in words)” value [1] was “do not influence calcium retention capacity”, the “Normalized # Pulses (calcium retention capacity ratio to DMSO)” value ([1]; 10 µM compound) was 1 and the “plasma membrane permeability / mitochondrial localization (in words)” value [2] was “poor”.
`C[N+]1=C(C=CC=CC=C2N(CCCCCC(=O)NCCNC(=O)C3CCNC(=O)C=CC(=O)N4CCCC(Cc5ccccc5)(C4)C(=O)NC(Cc4ccc(-c5ccc(C(CC(=O)O)CC(=O)O)cc5)cc4)C(=O)NCc4ccccc4CC(=O)N3)c3ccccc3C2(C)C)C(C)(C)c2ccccc21` (stereo not shown) [*B53-Cy5] was tested, and the “calcium retention capacity before mPTP opening (in words)” value [1] was “do not influence calcium retention capacity”, the “Normalized # Pulses (calcium retention capacity ratio to DMSO)” value ([1]; 20 µM compound) was 1 and the “plasma membrane permeability / mitochondrial localization (in words)” value [2] was “poor”.
Work on `NCCOCCNC(=O)[C@@H]1CCNC(=O)/C=C/C(=O)N2CCC[C@](Cc3ccccc3)(C2)C(=O)N[C@@H](Cc2ccc(-c3ccc(CCC(=O)O)cc3)cc2)C(=O)NCc2ccccc2CC(=O)N1` [Compound B23] yielded an IC50 [3, 7] of 8 nM.
Compound `NCCOCCNC(=O)[C@@H]1CCNC(=O)/C=C/C(=O)N2CCC[C@](Cc3ccccc3)(C2)C(=O)N[C@@H](Cc2ccc(-c3ccc(C#CC(=O)O)cc3)cc2)C(=O)NCc2ccccc2CC(=O)N1` [Compound B25] has an IC50 [3, 7] of 2.2 nM.
For `C[N+]1=C(C=CC=CC=C2N(CCCCCC(=O)NCCNC(=O)C3CCNC(=O)C=CC(=O)N4CCCC(Cc5ccccc5)(C4)C(=O)NC(Cc4ccc(-c5ccc(CC(C(=O)O)C(=O)O)cc5)cc4)C(=O)NCc4ccccc4CC(=O)N3)c3ccccc3C2(C)C)C(C)(C)c2ccccc21` (stereo not shown) [Compound B52-Cy5], the “calcium retention capacity before mPTP opening (in words)” value [1] was “substantially increased calcium retention capacity”, the “Normalized # Pulses (calcium retention capacity ratio to DMSO)” value ([1]; 10 µM compound) was 4.333 and 3 and 4 and the “plasma membrane permeability / mitochondrial localization (in words)” value [2] was “poor and did not observe efficient plasma membrane permeability”.
With `NCCOCCNC(=O)[C@@H]1CCNC(=O)/C=C/C(=O)N2CCC[C@](Cc3ccccc3)(C2)C(=O)N[C@@H](Cc2ccc(-c3ccc(CC(C(=O)O)C(=O)O)cc3)cc2)C(=O)NCc2ccccc2CC(=O)N1` [Compound B52] the IC50 [3, 8] was 8 nM.
With `C[N+]1=C(C=CC=CC=C2N(CCCCCC(=O)NCCNC(=O)C3CCNC(=O)C=CC(=O)N4CCCC(Cc5ccccc5)(C4)C(=O)NC(Cc4ccc(-c5ccc(C(CC(=O)O)CC(=O)O)cc5)cc4)C(=O)NCc4ccccc4CC(=O)N3)c3ccccc3C2(C)C)C(C)(C)c2ccccc21` (stereo not shown) [Compound B53-Cy5] the “calcium retention capacity before mPTP opening (in words)” value [1] was “substantially increased calcium retention capacity”, the “Normalized # Pulses (calcium retention capacity ratio to DMSO)” value ([1]; 20 µM compound) was 2.667 and 1.25 and 2 and the “plasma membrane permeability / mitochondrial localization (in words)” value [2] was “poor and did not observe efficient plasma membrane permeability”.
For `NCCOCCNC(=O)[C@@H]1CCNC(=O)/C=C/C(=O)N2CCC[C@](Cc3ccccc3)(C2)C(=O)N[C@@H](Cc2ccc(-c3ccc(C(CC(=O)O)CC(=O)O)cc3)cc2)C(=O)NCc2ccccc2CC(=O)N1` [Compound B53], the IC50 [3, 8] was 50 nM.
`NC(=O)C1CCNC(=O)C=CC(=O)N2CCCC(Cc3ccccc3)(C2)C(=O)NC(Cc2ccc(-c3ccc(C=O)c(B(O)O)c3)cc2)C(=O)NCc2ccccc2CC(=O)N1` (stereo not shown) [Compound C3A] showed an IC50 [4] of 30 nM, an IC50 ([5]; mutant CypE K218A, read-out: Mutant Cyclophilin Prolyl Isomerase Inhibition IC50 Values, CypE K218A) of 2000 nM and an IC50 ([5]; prolyl-isomerase inhibition, read-out: IC50 CypE K218A) of 19 ± 3 nM. The “selectivity for CypE over other tested cyclophilins” value ([6]; FP competition with A26-Fl) was no less than 10 fold.
With `NC(=O)[C@@H]1CCNC(=O)/C=C/C(=O)N2CCC[C@](Cc3ccccc3)(C2)C(=O)N[C@@H](Cc2ccc(-c3cccc(B(O)O)c3)cc2)C(=O)NCc2ccccc2CC(=O)N1` [Compound C6A] the Ki ([6]; FP competition with 0.5 nM A26-Fl, 24 h) was 7000 nM and the “reduced potency relative to C3A” value ([6]; FP competition with A26-Fl, CypE) was 100 fold.
